Experiments:
Rattus norvegicus [1] = experiment: PCA activity of compound in rat at 100 mg/kg dose; assay type: functional
Rattus norvegicus [2] = experiment: Tested for PCA activity in rat at 200 mg/kg dose; assay type: functional
Rattus norvegicus [3] = experiment: Tested for PCA activity of compound in rat at 10 mg/kg intravenous dose; assay type: functional
Rattus norvegicus [4] = experiment: Tested for antigenic challenge time, time measured was immediate when compound was administered before challenge in rat; immediate; assay type: functional, organism-based
Rattus norvegicus [5] = experiment: Tested for PCA activity of compound in rat at 1.0 mg/kg intravenous dose; assay type: functional
Rattus norvegicus [6] = experiment: Tested for anti PCA- activity when compound was administered intravenously 60 min before challenge in rat; assay type: functional; conditions: iv
Rattus norvegicus [7] = experiment: Tested for PCA activity of compound in rat at 2.5 mg/kg intravenous dose; assay type: functional
Rattus norvegicus [8] = experiment: Tested for PCA activity of compound in rat at 5 mg/kg intravenous dose; assay type: functional
Rattus norvegicus [9] = experiment: Tested for antigenic challenge time, time measured was immediate when compound was administered before challenge in rat;Immed = Immediate; assay type: functional, organism-based
Rattus norvegicus [10] = experiment: Tested for antigenic challenge time, time measured was immediate when compound was administered before challenge in rat; Immed = Immediate; assay type: functional, organism-based
Rattus norvegicus [11] = experiment: Tested for PCA activity of compound in rat at 25 mg/kg dose; assay type: functional
Rattus norvegicus [12] = experiment: Tested for PCA activity of compound in rat at 50 mg/kg dose; assay type: functional
Rattus norvegicus [13] = experiment: Tested for anti PCA- activity when compound was administered orally 60 min before challenge in exp1; assay type: functional; conditions: po
Rattus norvegicus [14] = experiment: Tested for anti PCA- activity when compound was administered orally 60 min before challenge in exp2; assay type: functional; conditions: po
Rattus norvegicus [15] = experiment: Tested for PCA activity of compound in rat at 50 mg/kg dose at 60 min challenge time.; assay type: functional; conditions: 1 h
Rattus norvegicus [16] = experiment: Tested for anti PCA- activity when compound was administered perorally 60 min before challenge in; assay type: functional; conditions: po

Row | Compound | inhibition in vivo at 100 mg/kg (Rattus norvegicus [1]) [%] | inhibition in vivo at 200 mg/kg (Rattus norvegicus [2]) [%] | other results
1 | COc1cc(NC(=O)COc2ccc(Cl)cc2)c(Cl)cc1C(=O)N1CCN(C/C=C/c2ccccc2)CC1 | 0 | – | –
2 | CCN(CC)CCNC(=O)c1cc(Cl)c(NC(=O)COc2ccccc2Cl)cc1OC | – | 0 | –
3 | CCN(CC)CCNC(=O)c1cc(Cl)c(NC(=O)COc2ccc(C)cc2)cc1OC | 22 | – | –
4 | CCN(CC)CCNC(=O)c1cc(Cl)c(N)cc1OC [METOCLOPRAMIDE] | 14 | – | inhibition in vivo at 10 mg/kg (Rattus norvegicus [3]): 84%; Challenge time (Rattus norvegicus [4]): Immediate
5 | CCN(CC)CCNC(=O)c1cc(Cl)c(NC(=O)COc2ccc(Cl)cc2Cl)cc1OC | – | 0 | –
6 | CCN(CC)CCNC(=O)c1cc(Cl)c(NC(=O)COc2ccc(Cl)c(Cl)c2)cc1OC.Cl | 0 | 0 | –
7 | CCN(CC)CCNC(=O)c1ccc(NC(=O)COc2ccc(Cl)cc2)c(OC)c1 | – | 20 | –
8 | CCN(CC)CCNC(=O)c1cc(Cl)c(NC(=O)CSc2ccccc2)cc1OC | 26 | – | –
9 | CCN(CC)CCNC(=O)c1cc(Cl)c(NC(=O)COc2ccc(F)cc2)cc1OC | 33 | 67 | –
10 | CCN(CC)CCNC(=O)c1ccc(NC(=O)COc2ccc(Cl)cc2)cc1 | – | 0 | –
11 | O=C([O-])c1cc(=O)c2c(OCC(O)COc3cccc4oc(C(=O)[O-])cc(=O)c34)cccc2o1.[Na+].[Na+] [CROMOLYN SODIUM] | – | – | inhibition in vivo at 1 mg/kg (Rattus norvegicus [5]): 28%; ED50 (Rattus norvegicus [6]): 2 mg/kg; inhibition in vivo at 2.5 mg/kg (Rattus norvegicus [7]): 58%; inhibition in vivo at 5 mg/kg (Rattus norvegicus [8]): 78%; Challenge time (Rattus norvegicus [9]): Immed; Challenge time (Rattus norvegicus [10]): Immed
12 | COc1cc(NC(=O)COc2ccc(Cl)cc2)c(Cl)cc1C(=O)N1CCN(C)CC1 | 0 | – | –
13 | CCN(CC)CCCNC(=O)c1cc(Cl)c(NC(=O)COc2ccc(Cl)cc2)cc1OC | – | 20 | –
14 | CCN1CCCC1CNC(=O)c1cc(Cl)c(NC(=O)COc2ccc(Cl)cc2)cc1OC (stereo not drawn) | – | – | inhibition in vivo at 25 mg/kg (Rattus norvegicus [11]): 53%; inhibition in vivo at 50 mg/kg (Rattus norvegicus [12]): 60%
15 | CCN(CC)CCNC(=O)c1cc(Cl)c(NC(=O)C(C)(C)Oc2ccc(Cl)cc2)cc1OC.Cl | 0 | 20 | –
16 | CCN(CC)CCNC(=O)c1cc(Cl)c(NC(=O)COc2cccc(C(F)(F)F)c2)cc1OC.Cl | 53 | 40 | –
17 | COc1cc(NC(=O)COc2ccc(Cl)cc2)c(Cl)cc1C(=O)N1CCN(C(c2ccccc2)c2ccccc2)CC1 | 0 | – | –
18 | O=C(O)c1ccc2oc3ccc(OCCO)cc3c(=O)c2c1 | 71 | – | –
19 | CCN(CC)CCNC(=O)c1cc(Cl)c(NC(=O)C(Oc2ccc(Cl)cc2)Oc2ccc(Cl)cc2)cc1OC | – | 0 | –

Row | Compound | inhibition in vivo at 100 mg/kg (Rattus norvegicus [1]) [%] | inhibition in vivo at 200 mg/kg (Rattus norvegicus [2]) [%] | other results
20 | CCN(CC)CCNC(=O)c1cc(Cl)ccc1NC(=O)COc1ccc(F)cc1 | 0 | – | –
21 | COc1cc(NC(=O)COc2ccc(Cl)cc2)c(Cl)cc1C(=O)O | – | 0 | –
22 | CCN(CC)CCNC(=O)c1cc(Cl)c(NC(=O)CNc2ccccc2)cc1OC | 5 | – | –
23 | CCN(CC)CCNC(=O)c1cc(Cl)c(NC(=O)C(C)Oc2ccc(Cl)cc2)cc1OC.Cl (stereo not drawn) | 62 | 32 | ED50 (Rattus norvegicus [13]): 64.5 mg/kg; ED50 (Rattus norvegicus [14]): 60.9 mg/kg; inhibition in vivo at 50 mg/kg (Rattus norvegicus [12]): 41%
24 | CCN(CC)CCNC(=O)c1cc(Cl)c(NC(=O)COc2ccc(Cl)cc2)cc1OC.Cl [CLOXACEPRIDE HYDROCHLORIDE] | 69 | 75 | ED50 (Rattus norvegicus [13]): 49 mg/kg; inhibition in vivo at 50 mg/kg (Rattus norvegicus [15]): 49%; ED50 (Rattus norvegicus [14]): 46.9 mg/kg
25 | CCN(CC)CCNC(=O)c1cc(Cl)c(NC(=O)COc2ccc(OC)cc2)cc1OC.Cl | 53 | 33 | –
26 | CCN(CC)CCNC(=O)c1ccc(NC(=O)COc2ccc(Cl)cc2)c(Cl)c1.O=C(O)CC(O)(CC(=O)O)C(=O)O | 14 | 0 | –
27 | CCN(CC)CCNC(=O)c1cccc(NC(=O)COc2ccc(Cl)cc2)c1 | 7 | – | –
28 | CCN(CC)CCNC(=O)c1cc(NC(=O)COc2ccc(Cl)cc2)ccc1OC(C)=O | 0 | – | –
29 | COc1cc(NC(=O)COc2ccc(Cl)cc2)c(Cl)cc1C(=O)NCc1cccnc1 | – | 20 | –
30 | CCN(CC)CCNC(=O)c1ccc(Cl)c(NC(=O)COc2ccc(Cl)cc2)c1 | 7 | – | –
31 | CCOC(=O)c1cc(Cl)c(NC(=O)COc2ccc(Cl)cc2)cc1OC | 93 | 20 | –
32 | CCN(CC)CCNC(=O)c1cc(Cl)ccc1NC(=O)COc1ccc(Cl)cc1 | 0 | – | –
33 | CCN(CC)CCNC(=O)c1cc(Cl)c(NC(=O)COc2ccccc2)cc1OC | 47 | 67 | –
34 | CCN(CC)CCNC(=O)c1cc(Cl)c(NC(=O)COc2cccc(Cl)c2Cl)cc1OC | – | 0 | –
35 | CCN(CC)CCNC(=O)c1ccc(NC(=O)COc2ccccc2)c(OC)c1 | – | 20 | –
36 | CCN(CC)CCNC(=O)c1cc(Cl)c(NC(=O)COc2ccc(I)cc2)cc1OC | 0 | 27 | –
37 | COc1cc(NC(=O)COc2ccc(Cl)cc2)c(Cl)cc1NCCN1CCCC1 | – | 20 | –
38 | Cn1c(=O)c2nc[nH]c2n(C)c1=O.O [THEOPHYLLINE] | – | – | ED50 (Rattus norvegicus [16]): 47.2 mg/kg
